In assay [1] the target is T1, human CRF2α receptor (Homo sapiens, UniProt Q13324).
T1 construct: expressed in transfected cells; host or cells: TeloHEAC
T1 sequence (Q13324 1-411): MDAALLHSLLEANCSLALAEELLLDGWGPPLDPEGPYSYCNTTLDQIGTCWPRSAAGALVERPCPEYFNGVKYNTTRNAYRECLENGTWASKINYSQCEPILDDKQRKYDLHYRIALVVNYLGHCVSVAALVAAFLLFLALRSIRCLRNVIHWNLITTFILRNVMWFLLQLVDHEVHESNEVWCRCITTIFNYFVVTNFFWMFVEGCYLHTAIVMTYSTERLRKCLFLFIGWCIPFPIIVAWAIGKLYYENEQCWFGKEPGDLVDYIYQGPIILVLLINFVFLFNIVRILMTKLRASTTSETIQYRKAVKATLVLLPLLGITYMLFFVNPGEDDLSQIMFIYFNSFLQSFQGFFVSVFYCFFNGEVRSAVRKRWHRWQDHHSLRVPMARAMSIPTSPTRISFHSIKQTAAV
Briefly: cAMP agonism at human CRF2 α receptor in TeloHEAC cells (Example 7). The class given is cell-based. The following applies: cAMP HTRF, TeloHEAC cells stably expressing human CRF2 α. In a few lines: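 Percent activation was referenced to 1000 nM UCN2 (100%), and EC50 values taken as concentrations giving half of maximal response. The read-out was a homogeneous time-resolved fluorescence cAMP kit, fluorescence ratio 665/620 nm. Thawed cells (2000/well) saw compound for 30 min at RT in buffer with 2 mM IBMX and 0%/0.1% HSA.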

In assay [2] the target is T2, CRF1R receptor (Homo sapiens, UniProt P34998).
T2 construct: host or cells: CHO-K1 clone 2
T2 sequence (P34998 24-415): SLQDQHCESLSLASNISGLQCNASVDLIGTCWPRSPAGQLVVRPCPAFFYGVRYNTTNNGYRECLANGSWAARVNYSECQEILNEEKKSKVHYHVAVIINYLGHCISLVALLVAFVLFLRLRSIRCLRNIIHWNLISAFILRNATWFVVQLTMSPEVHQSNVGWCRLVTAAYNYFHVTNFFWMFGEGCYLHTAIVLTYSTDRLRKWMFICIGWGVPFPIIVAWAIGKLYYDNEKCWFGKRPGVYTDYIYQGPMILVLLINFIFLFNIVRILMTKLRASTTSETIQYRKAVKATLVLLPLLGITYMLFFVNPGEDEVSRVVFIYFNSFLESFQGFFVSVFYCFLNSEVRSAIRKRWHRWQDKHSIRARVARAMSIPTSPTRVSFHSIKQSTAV
Briefly: cAMP activity at anti-target CRF1R, CRF1R-overexpression CHO cell line (Example 9). The class given is cell-based. The following applies: CRF1R-overexpression CHO cell line; for EC50: 0% HSA; for Emax: read-out: Emax (%). The protocol: Cells were grown in a T175 culture flask placed at 37° C. to near confluence in medium (DMEM/10% FBS) and collected in 2 ml vials in cell culture medium containing 10% DMSO in a concentration of 10-50 million cells/ml. Each vial contained 1.8 ml cells. The vials were slowly frozen to −80° C. in isopropanol and then transferred in liquid nitrogen for storage. Prior to use, frozen cells were thawed quickly at 37° C. and washed (5 min at 900 rpm) with 20 ml cell buffer (1×HBSS; 20 mM HEPES; 0% or 0.1% HSA). Cells were resuspended in assay buffer (cell buffer plus 2 mM IBMX) and adjusted to a cell density of 1 million cells/ml. For measurement, 5 μl cells (final […]) and 5 μL of test compound were added to a 384-well plate, followed by incubation for 30 minutes at room temperature.
The CAMP content of cells was determined using a kit from Cisbio Corp. (cat. no. 62AM4PEC) based on HTRF (Homogenous Time Resolved Fluorescence). […] The percent activity value (E %) was calculated by setting 1000 nM of urocortin 2 (UCN2) as 100%.
A CRF1R-overexpression CHO cell line was used in this study.

Assay [3] addresses T3, CRF1R receptor (anti-target) (UniProt P34998 24-415, limits assumed).
T3 sequence (looked up): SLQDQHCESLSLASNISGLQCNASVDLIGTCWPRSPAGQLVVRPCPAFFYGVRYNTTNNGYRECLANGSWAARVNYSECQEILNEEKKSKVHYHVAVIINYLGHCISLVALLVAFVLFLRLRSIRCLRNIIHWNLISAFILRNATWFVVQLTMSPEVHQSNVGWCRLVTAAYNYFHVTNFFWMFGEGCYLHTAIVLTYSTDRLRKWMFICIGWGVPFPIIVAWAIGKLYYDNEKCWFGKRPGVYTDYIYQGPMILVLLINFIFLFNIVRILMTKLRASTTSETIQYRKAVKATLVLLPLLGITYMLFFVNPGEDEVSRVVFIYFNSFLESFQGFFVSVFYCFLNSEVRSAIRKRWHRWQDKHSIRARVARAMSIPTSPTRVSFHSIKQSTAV
Briefly: cell-based or functional assay.

Setting [4] is: 0% HSA, read-out: EC50 [nM], 0% HSA.
The mark [5] stands for this setting: 0.1% HSA, read-out: EC50 [nM], 0.1% HSA.

Like-named read-outs stand apart in the source and are kept apart here. Starred links: 1 amine or outer side, 2 acyl side, 3 side chain; linkers in the order of their positions; H or OH if unused. Non-standard residues stand in square brackets, D forms with d. Residues, ends and D or L forms follow the SMILES beside them. Groups on a side chain read outwards from the residue. No end group written: not given here. *: point of attachment. C20 diacid = O=C(O)CCCCCCCCCCCCCCCCCCC(=O)*; C18 diacid = O=C(O)CCCCCCCCCCCCCCCCC(=O)*; γGlu = O=C(O)[C@H](CCC(=O)[*:2])N[*:1]; AEEA = NCCOCCOCC(=O)O; Aib = CC(C)(N)C(=O)O A value given as a limit tells only on which side of the number the result lay.

As a reminder, the EC50 is the concentration that produces a half-maximal response. A word on the Emax: it is the greatest response seen or fitted, relative to the assay's reference. Take `CC[C@H](C)[C@H](NC(C)=O)C(=O)N[C@H](C(=O)N[C@@H](CC(C)C)C(=O)N[C@@H](CO)C(=O)N[C@@H](CC(C)C)C(=O)N[C@@H](CC(=O)O)C(=O)N[C@@H](C(=O)N1CCC[C@H]1C(=O)N[C@H](C(=O)N[C@@H](CCCCN)C(=O)N[C@@H](CC(C)C)C(=O)N[C@@H](CCCCNC(=O)COCCOCCNC(=O)COCCOCCNC(=O)CC[C@H](NC(=O)CCCCCCCCCCCCCCCCC(=O)O)C(=O)O)C(=O)N[C@@H](CCC(N)=O)C(=O)N[C@H](C(=O)N[C@@H](CC(C)C)C(=O)N[C@@H](CC(C)C)C(=O)N[C@@H](CCC(=O)O)C(=O)N[C@@H](CCC(N)=O)C(=O)N[C@@H](CCC(=O)O)C(=O)N[C@@H](CCCNC(=N)N)C(=O)N[C@@H](CCC(N)=O)C(=O)N[C@@H](CCC(=O)O)C(=O)NC(C)(C)C(=O)N[C@@H](CCC(=O)O)C(=O)N[C@@H](CCCNC(=N)N)C(=O)N[C@@H](CCC(=O)O)C(=O)N[C@@H](CCC(N)=O)C(=O)N[C@@H](C)C(=O)N[C@@H](CCC(=O)O)C(=O)N[C@@H](CCCCN)C(=O)N[C@@H](CC(N)=O)C(=O)N[C@@H](CCC(=O)O)C(=O)N[C@@H](CCC(N)=O)C(=O)N[C@H](C(=O)N[C@@H](CC(C)C)C(=O)N[C@@H](CCC(=O)O)C(=O)N[C@@H](CCC(N)=O)C(=O)N[C@H](C(N)=O)C(C)C)[C@@H](C)CC)[C@@H](C)CC)[C@@H](C)CC)C(C)C)C(C)C` [compound 161] (Ac-IVLSLD[dV]PIKLK([AEEA-AEEA-γGlu-C18 diacid])QILLEQERQE[Aib]EREQAEKNEQILEQV-NH2): the EC50 in assay [1] (setting [4]) is 36 nM; in assay [1] (setting [5]), 977 nM; in assay [2], over 1000 nM. Besides, the Emax in assay [2] came to 3.42%.
For `CC[C@H](C)[C@H](N)C(=O)N[C@H](C(=O)N[C@@H](CC(C)C)C(=O)N[C@@H](CO)C(=O)N[C@@H](CC(C)C)C(=O)N[C@@H](CC(=O)O)C(=O)N[C@@H](C(=O)N1CCC[C@H]1C(=O)N[C@H](C(=O)N[C@@H](CCCCN)C(=O)N[C@@H](CC(C)C)C(=O)N[C@@H](CCCCNC(=O)COCCOCCNC(=O)COCCOCCNC(=O)CC[C@H](NC(=O)CC[C@H](NC(=O)CCCCCCCCCCCCCCCCC(=O)O)C(=O)O)C(=O)O)C(=O)N[C@@H](CCC(N)=O)C(=O)N[C@H](C(=O)N[C@@H](CC(C)C)C(=O)N[C@@H](CC(C)C)C(=O)N[C@@H](CCCCN)C(=O)N[C@@H](CCC(N)=O)C(=O)N[C@@H](CCC(=O)O)C(=O)N[C@@H](CCCNC(=N)N)C(=O)N[C@@H](CCC(N)=O)C(=O)N[C@@H](CCCCN)C(=O)NC(C)(C)C(=O)N[C@@H](CCC(N)=O)C(=O)N[C@@H](CCCNC(=N)N)C(=O)N[C@@H](CCC(=O)O)C(=O)N[C@@H](CCC(N)=O)C(=O)N[C@@H](C)C(=O)N[C@@H](CCC(=O)O)C(=O)N[C@@H](CCCCN)C(=O)N[C@@H](CC(N)=O)C(=O)N[C@@H](CCCCN)C(=O)N[C@@H](CCC(N)=O)C(=O)N[C@H](C(=O)N[C@@H](CC(C)C)C(=O)N[C@@H](C)C(=O)N[C@@H](CCC(N)=O)C(=O)N[C@H](C(N)=O)C(C)C)[C@@H](C)CC)[C@@H](C)CC)[C@@H](C)CC)C(C)C)C(C)C` [compound 171] (H-IVLSLD[dV]PIKLK([AEEA-AEEA-γGlu-γGlu-C18 diacid])QILLKQERQK[Aib]QREQAEKNKQILAQV-NH2), in that order: 0.17 nM, 2.62 nM, over 1000 nM and 7.54%.
Take `CC[C@H](C)[C@H](N)C(=O)N[C@H](C(=O)N[C@@H](CC(C)C)C(=O)N[C@@H](CO)C(=O)N[C@@H](CC(C)C)C(=O)N[C@@H](CC(=O)O)C(=O)N[C@@H](C(=O)N1CCC[C@H]1C(=O)N[C@H](C(=O)N[C@@H](CCCCN)C(=O)N[C@@H](CC(C)C)C(=O)N[C@@H](CCCCNC(=O)COCCOCCNC(=O)COCCOCCNC(=O)CC[C@H](NC(=O)CC[C@H](NC(=O)CCCCCCCCCCCCCCCCCCC(=O)O)C(=O)O)C(=O)O)C(=O)N[C@@H](CCC(N)=O)C(=O)N[C@H](C(=O)N[C@@H](CC(C)C)C(=O)N[C@@H](CC(C)C)C(=O)N[C@@H](CCCCN)C(=O)N[C@@H](CCC(N)=O)C(=O)N[C@@H](CCC(=O)O)C(=O)N[C@@H](CCCNC(=N)N)C(=O)N[C@@H](CCC(N)=O)C(=O)N[C@@H](CCCCN)C(=O)NC(C)(C)C(=O)N[C@@H](CCC(N)=O)C(=O)N[C@@H](CCCNC(=N)N)C(=O)N[C@@H](CCC(=O)O)C(=O)N[C@@H](CCC(N)=O)C(=O)N[C@@H](C)C(=O)N[C@@H](CCC(=O)O)C(=O)N[C@@H](CCCCN)C(=O)N[C@@H](CC(N)=O)C(=O)N[C@@H](CCCCN)C(=O)N[C@@H](CCC(N)=O)C(=O)N[C@H](C(=O)N[C@@H](CC(C)C)C(=O)N[C@@H](C)C(=O)N[C@@H](CCC(N)=O)C(=O)N[C@H](C(N)=O)C(C)C)[C@@H](C)CC)[C@@H](C)CC)[C@@H](C)CC)C(C)C)C(C)C` [compound 172] (H-IVLSLD[dV]PIKLK([AEEA-AEEA-γGlu-γGlu-C20 diacid])QILLKQERQK[Aib]QREQAEKNKQILAQV-NH2; N-terminus assumed): the EC50 is 0.04 nM in assay [1] (setting [4]), 2.76 nM in assay [1] (setting [5]) and over 1000 nM in assay [2]. For the same molecule, the Emax in assay [2] amounted to 25.6%.

B1: peptide of SEQ ID NO: 16 (peptide)
peptide: IVLSLDVPIGLK([AEEA-AEEA-γGlu-C18 diacid])QKLLKQQRQRKERQQAEKNARILARV-NH2
modifications: N-terminus assumed
SMILES: CC[C@H](C)[C@H](N)C(=O)N[C@H](C(=O)N[C@@H](CC(C)C)C(=O)N[C@@H](CO)C(=O)N[C@@H](CC(C)C)C(=O)N[C@@H](CC(=O)O)C(=O)N[C@H](C(=O)N1CCC[C@H]1C(=O)N[C@H](C(=O)NCC(=O)N[C@@H](CC(C)C)C(=O)N[C@@H](CCCCNC(=O)COCCOCCNC(=O)COCCOCCNC(=O)CC[C@H](NC(=O)CCCCCCCCCCCCCCCCC(=O)O)C(=O)O)C(=O)N[C@@H](CCC(N)=O)C(=O)N[C@@H](CCCCN)C(=O)N[C@@H](CC(C)C)C(=O)N[C@@H](CC(C)C)C(=O)N[C@@H](CCCCN)C(=O)N[C@@H](CCC(N)=O)C(=O)N[C@@H](CCC(N)=O)C(=O)N[C@@H](CCCNC(=N)N)C(=O)N[C@@H](CCC(N)=O)C(=O)N[C@@H](CCCNC(=N)N)C(=O)N[C@@H](CCCCN)C(=O)N[C@@H](CCC(=O)O)C(=O)N[C@@H](CCCNC(=N)N)C(=O)N[C@@H](CCC(N)=O)C(=O)N[C@@H](CCC(N)=O)C(=O)N[C@@H](C)C(=O)N[C@@H](CCC(=O)O)C(=O)N[C@@H](CCCCN)C(=O)N[C@@H](CC(N)=O)C(=O)N[C@@H](C)C(=O)N[C@@H](CCCNC(=N)N)C(=O)N[C@H](C(=O)N[C@@H](CC(C)C)C(=O)N[C@@H](C)C(=O)N[C@@H](CCCNC(=N)N)C(=O)N[C@H](C(N)=O)C(C)C)[C@@H](C)CC)[C@@H](C)CC)C(C)C)C(C)C
With B1, in assay [3], the “EC50 [nM] 0% HSA (cAMP, HTRF)” value was over 100 nM and the “Emax (%) (100% = Sauvagine at 100 nM)” value was 0.4%.

The values above are taken from patent US12679878B2, “CRF2 receptor agonists and their use in therapy” (SANOFI, priority 2020, dated 2026).
